Source: ChEMBL document CHEMBL4818987, “Recent advances of podophyllotoxin/epipodophyllotoxin hybrids in anticancer activity, mode of action, and structure-activity relationship: An update (2010-2020)” (Eur J Med Chem, 2020)
One block for each compound: values may come before it.

Assays:
[1] = Terminal half life in Sprague-Dawley rat at 2.5 mg/kg, iv measured after 5 to 1440 mins by LC-MS/MS analysis; format: ADME, organism-based; details: in vivo, time 5-1440 min, read-out: beta t1/2 (converted)
[2] = MRT in Sprague-Dawley rat at 2.5 mg/kg, iv measured after 5 to 1440 mins by LC-MS/MS analysis; format: ADME, organism-based; details: in vivo, time 5-1440 min
[3] = Plasma clearance in Sprague-Dawley rat at 2.5 mg/kg, iv measured after 5 to 1440 mins by LC-MS/MS analysis; format: ADME, organism-based; design: dose 2.5 mg/kg, time upper 1440 min, time lower 5 min; details: time 5-1440 min, dose 2.5 mg/kg
[4] = Mean initial plasma concentration in Sprague-Dawley rat at 2.5 mg/kg, iv measured after 5 to 1440 mins by LC-MS/MS analysis; format: ADME, organism-based; details: rat, plasma, iv, time 5-1440 min, dose 2.5 mg/kg, read-out: C0
[5] = AUCinfinity in Sprague-Dawley rat at 2.5 mg/kg, iv measured after 5 to 1440 mins by LC-MS/MS analysis; format: ADME, organism-based; design: route intravenous, dose 2.5 mg/kg, time upper 1440 min, time lower 5 min; details: in vivo, 2.5 mg/kg
[6] = tested on: DU-145; test: Antiproliferative activity against human DU145 cells by MTT assay; format: functional, cell-based
[7] = tested on: MKN-45; test: Potency index, ratio of etoposide IC50 to test compound IC50 for antiproliferative activity against human MKN-45 cells; format: functional
[8] = tested on: BGC-823; test: Potency index, ratio of etoposide IC50 to test compound IC50 for antiproliferative activity against human BGC-823 cells; format: functional
[9] = tested on: BGC-823; test: Antiproliferative activity against human BGC-823 cells incubated for 72 hrs by MTT assay; format: functional, cell-based; details: BGC-823, 72 h
[10] = tested on: MKN-45; test: Antiproliferative activity against human MKN-45 cells incubated for 72 hrs by MTT assay; format: functional, cell-based; details: Homo sapiens, MKN-45, 72 h
[11] = tested on: HL-60; test: Antiproliferative activity against human HL-60 cells by MTT assay; format: functional, cell-based
[12] = tested on: SW480; test: Antiproliferative activity against human SW480 cells by MTT assay; format: functional, cell-based
[13] = tested on: SMMC-7721; test: Antiproliferative activity against human SMMC-7721 cells by MTT assay; format: functional, cell-based
[14] = tested on: MCF7; test: Cytotoxicity against human MCF7 cells by MTT assay; format: functional, cell-based
[15] = tested on: A549; test: Antiproliferative activity against human A549 cells by MTT assay; format: functional, cell-based
[16] = tested on: MCF7; test: Cytotoxicity against human MCF7 cells incubated for 24 hrs by CCK8 assay; format: functional, cell-based; details: MCF7, 24 h
[17] = tested on: L02; test: Cytotoxicity against human L02 cells incubated for 24 hrs by CCK8 assay; format: functional, cell-based; details: L02, 24 h
[18] = tested on: HeLa; test: Cytotoxicity against human HeLa cells incubated for 24 hrs by CCK8 assay; format: functional, cell-based
[19] = tested on: A549; test: Cytotoxicity against human A549 cells incubated for 24 hrs by CCK8 assay; format: functional, cell-based; details: A549, 24 h
[20] = Cytotoxicity against PBMC (unknown origin) incubated for 24 hrs by CCK8 assay
[21] = tested on: HepG2; test: Cytotoxicity against human HepG2 cells incubated for 24 hrs by CCK8 assay; format: functional, cell-based; details: HepG2, 24 h

- half-life [1]: 67.8 min
- MRT [2]: 16.2 min
- clearance [3]: 19 mL/min/kg
- C0 [4]: 8780 ng/mL
- AUC(0-inf) [5]: 2210 ng·h/mL
SMILES: COc1cc([C@@H]2c3cc4c(cc3[C@@H](NCC(F)(F)[C@]3(O)O[C@H](CO)[C@@H](O)[C@H](O)[C@H]3O)[C@H]3COC(=O)[C@H]23)OCO4)cc(OC)c1OC

SMILES: COc1cc([C@@H]2c3cc4c(cc3[C@@H](OCc3cn([C@@H]5O[C@H](COC(C)=O)[C@@H](OC(C)=O)[C@H](OC(C)=O)[C@H]5OC(C)=O)nn3)[C@H]3COC(=O)[C@H]23)OCO4)cc(OC)c1OC
- IC50 [6]: 1020 nM

SMILES: COc1cc([C@@H]2c3cc4c(cc3[C@H](OC(=O)/C=C(C)/C=C/C=C(C)/C=C/C3=C(C)CCCC3(C)C)[C@H]3COC(=O)[C@H]23)OCO4)cc(OC)c1OC
- Ratio IC50 [7]: 6.8
- Ratio IC50 [8]: 6.8
- IC50 [9]: 202 nM
- IC50 [10]: 419 nM

SMILES: COc1cc([C@@H]2c3cc4c(cc3[C@@H](n3cc(CO[C@@H]5O[C@H](CO[C@@H]6O[C@H](CO)[C@@H](O)[C@H](O)[C@H]6O)[C@@H](O)[C@H](O)[C@H]5O)nn3)[C@H]3COC(=O)[C@H]23)OCO4)cc(OC)c1OC
- IC50 [11]: 670 nM
- IC50 [12]: 670 nM
- IC50 [13]: 670 nM
- IC50 [14]: 670 nM
- IC50 [15]: 670 nM

SMILES: COc1cc([C@@H]2c3cc4c(cc3[C@H](OC(=O)c3c[nH]c5ccccc35)[C@H]3COC(=O)[C@H]23)OCO4)cc(OC)c1OC
- IC50 [16]: 1930 nM
- IC50 [17]: 88900 nM
- IC50 [18]: 1930 nM
- IC50 [19]: 1930 nM
- IC50 [20]: 75600 nM
- IC50 [21]: 1930 nM
